Measured values taken from patent US8471024B2, “Tetrahydrofuropyridones” (priority 2008, dated 2013).

Molecular target: T1, PHD2 (Homo sapiens, UniProt Q9GZT9)
T1 construct: FLAG-tagged full length PHD2expressed in and purified from baculovirus-infected Sf9 cells; FLAG; made in house; host or cells: baculovirus-infected Sf9 cells
Assay: Assay for HIF-PHD2 Catalytic Activity (time resolved fluorescence, VHL complex detection)
Format: biochemical
Conditions: FLAG-tagged full length PHD2; 0.2 μM 2-oxoglutarate, 0.5 μM HIF-1α peptide; read-out: PHD2 Binding Activity IC50
Experimental: Assay for HIF-PHD2Catalytic Activity To each well of a 96-well plate was added 1 μL of test compound in DMSO and 20 μl of assay buffer (50 mM Tris pH 7.4/0.01% Tween-20/0.1 mg/ml bovine serum albumin/10 μM ferrous sulfate/1mM sodium ascorbate/20 μg/ml catalase) containing 0.15 μg/ml FLAG-tagged full length PHD2expressed in and purified from baculovirus-infected Sf9 cells. After a 30 min preincubation at room temperature, the enzymatic reactions were initiated by the addition of 4 μL of substrates (final concentrations of 0.2 μM 2-oxoglutarate and 0.5 μM HIF-1α peptide biotinyl-DLDLEMLAPYJPMDDDFQL).

T1 sequence (Q9GZT9 whole entry): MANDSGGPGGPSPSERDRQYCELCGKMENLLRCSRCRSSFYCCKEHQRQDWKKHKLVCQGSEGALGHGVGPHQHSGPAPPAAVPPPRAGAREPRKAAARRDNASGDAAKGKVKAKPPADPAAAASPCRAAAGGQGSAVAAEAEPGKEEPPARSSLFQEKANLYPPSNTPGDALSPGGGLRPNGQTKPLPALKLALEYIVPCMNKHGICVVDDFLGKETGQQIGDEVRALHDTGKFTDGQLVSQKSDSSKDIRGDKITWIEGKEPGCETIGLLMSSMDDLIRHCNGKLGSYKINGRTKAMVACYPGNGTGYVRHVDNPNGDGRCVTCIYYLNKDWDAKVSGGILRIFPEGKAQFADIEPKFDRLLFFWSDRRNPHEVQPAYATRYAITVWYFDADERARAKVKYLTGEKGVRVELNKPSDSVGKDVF

IC50 [nM] | Compound
< 10 | O=C(O)CNC(=O)c1c(O)c2c(n(Cc3ccc(OCC(F)(F)F)cc3)c1=O)COC2 [Example 24, N-({4-hydroxy-2-oxo-1-[4-(2,2,2-trifluoroethoxy)benzyl]-1,2,5,7-tetrahydrofuro[3,4-b]pyridin-3-yl}carbonyl)glycine]
< 10 | O=C(O)CNC(=O)c1c(O)c2c(n(Cc3ccc(-c4ccccc4Cl)cc3)c1=O)COC2 [Example 28]
< 10 | O=C(O)CNC(=O)c1c(O)c2c(n(Cc3ccc(-c4ccccc4OCC(F)(F)F)nc3)c1=O)COC2 [Example 46]
< 10 | CCN(CC)C(=O)c1ccccc1-c1ccc(Cn2c3c(c(O)c(C(=O)NCC(=O)O)c2=O)COC3)c(F)c1 [Example 40]
< 10 | O=C(O)CNC(=O)c1c(O)c2c(n(Cc3ccc(Br)cc3)c1=O)COC2 [Example 10, N-{[1-(4-bromobenzyl)-4-hydroxy-2-oxo-1,2,5,7-tetrahydrofuro[3,4-b]pyridin-3-yl]carbonyl)glycine]
< 10 | O=C(O)CNC(=O)c1c(O)c2c(n(Cc3ccc(-c4ccccc4C(F)(F)F)nc3)c1=O)COC2 [Example 47, N-{[4-hydroxy-2-oxo-1-({6-[2-(trifluoromethyl)phenyl]pyridin-3-yl}methyl)-1,2,5,7-tetrahydrofuro[3,4-b]pyridin-3-yl]carbonyl}glycine]
< 10 | O=C(O)CNC(=O)c1c(O)c2c(n(Cc3ccc(Cl)nc3)c1=O)COC2 [Example 9, N-({1-[(6-chloropyridin-3-yl)methyl]-4-hydroxy-2-oxo-1,2,5,7-tetrahydrofuro[3,4-b]pyridin-3-yl}carbonyl)glycine]
< 10 | O=C(O)CNC(=O)c1c(O)c2c(n(Cc3nc(-c4ccc(Cl)cc4Cl)cs3)c1=O)COC2 [Example 26, N-[(1-{[4-(2,4-dichlorophenyl)-1,3-thiazol-2-yl]methyl)-4-hydroxy-2-oxo-1,2,5,7-tetrahydrofuro[3,4-b]pyridin-3-yl)carbonyl]glycine]
< 10 | O=C(O)CNC(=O)c1c(O)c2c(n(Cc3ccc(-c4ccccc4OC(F)(F)F)nc3)c1=O)COC2 [Example 48, N-{[4-hydroxy-2-oxo-1-({6-[2-(trifluoromethoxy)phenyl]pyridin-3-yl}methyl)-1,2,5,7-tetrahydrofuro[3,4-b]pyridin-3-yl]carbonyl}glycine]
< 10 | O=C(O)CNC(=O)c1c(O)c2c(n(Cc3nc(-c4ccccc4Cl)cs3)c1=O)COC2 [Example 27, N-[(1-{[4-(2-chlorophenyl)-1,3-thiazol-2-yl]methyl)-4-hydroxy-2-oxo-1,2,5,7-tetrahydrofuro[3,4-b]pyridin-3-yl)carbonyl]glycine]
< 10 | O=C(O)CNC(=O)c1c(O)c2c(n(Cc3ccc(-c4nccs4)cc3)c1=O)COC2 [Example 23, N-({4-hydroxy-2-oxo-1-[4-(1,3-thiazol-2-yl)benzyl]-1,2,5,7-tetrahydrofuro[3,4-b]pyridin-3-yl}carbonyl)glycine]
< 10 | O=C(O)CNC(=O)c1c(O)c2c(n(Cc3cnc(-c4ccccc4OC(F)(F)F)cn3)c1=O)COC2 [Example 54, N-[(1-{[5-(2-trifluoromethoxyphenyl)pyrazin-2-yl]methyl}-4-hydroxy-2-oxo-1,2,5,7-tetrahydrofuro[3,4-b]pyridin-3-yl)carbonyl]glycine]
< 10 | O=C(O)CNC(=O)c1c(O)c2c(n(Cc3ccc(Br)cc3F)c1=O)COC2 [Example 15, N-{[1-(4-bromo-2-fluorobenzyl)-4-hydroxy-2-oxo-1,2,5,7-tetrahydrofuro[3,4-b]pyridin-3-yl]carbonyl}glycine]
< 10 | O=C(O)CNC(=O)c1c(O)c2c(n(Cc3cnc(-c4ccccc4Cl)cn3)c1=O)COC2 [Example 53, N-[(1-{[5-(2-chlorophenyl)pyrazin-2-yl]methyl}-4-hydroxy-2-oxo-1,2,5,7-tetrahydrofuro[3,4-b]pyridin-3-yl)carbonyl]glycine]
